# Results taken from patent US20240246945A1, “NOVEL COMPOUND FOR CROP PROTECTANT” (LG CHEM, LTD., priority 2010, published 2024).
# System: Myzus persicae (Sulzer)
# Assay: Insecticidal Activity Test 2 against Myzus persicae (Sulzer), foliar spray on potted peppers, approximately 25 ppm
# Type: in vivo
# Conditions: in Capsicum, 120 h, approximately 25 ppm drug solution in water, counted on day 5 after spraying, read-out: mortality rate rating
# Excerpt: Insecticidal Activity Test 2 Against Myzus persicae (Sulzer)
# (§1) Peppers were planted in plastic pots with a diameter of 8 cm and a height of 8 cm, Myzus persicae (Sulzer) was reproduced therein, and then the number of Myzus persicae (Sulzer) in each pot was investigated. Some of the compounds prepared in the examples were selected, the compound was dispersed in water to be diluted to approximately 25 ppm, thereby preparing a drug solution.
# The drug solution was sprayed onto the foliage of the peppers planted in the pots and air-dried, and the pots were stored in a green house.
# (§2) On day 5 after the drug spraying, the number of Myzus persicae (Sulzer) parasitic on each pepper was counted, a mortality rate was calculated from the following formula, and the rating of each compound was investigated.
# (§3) [formula] • A rating: 90% to 100% mortality • B rating: 80% or more and less than 90% mortality • C rating: less than 80% mortality
row,Compound,mortality at 25 µg/mL
1,"CCN(C(=O)c1cnc(C2=NC3(CCOCC3)ON2C)n1C)c1cccnc1 [Ia-1-5-2, N-ethyl-1-methyl-2-(2-methyl-1,8-dioxa-2,4-diazaspiro[4.5]dec-3-en-3-yl)-N-(pyridin-3-yl)-1H-imidazole-5-carboxamide]",90 to 100%

# System: Myzus persicae (Sulzer)
# Assay: Insecticidal Activity Test 1 against Myzus persicae (Sulzer), foliar spray on potted peppers, approximately 5 ppm
# Type: in vivo
# Conditions: in Capsicum, 120 h, approximately 5 ppm drug solution in water, counted on day 5 after spraying, read-out: mortality rate rating
# Excerpt: Insecticidal Activity Test 1 Against Myzus persicae (Sulzer)
# as §1, with “5” for “25”
# The drug solution was sprayed onto the foliage of the peppers planted in the pots using a hand sprayer and air-dried, and the pots were stored in a green house.
# as §2, §3
row,Compound,mortality at 5 µg/mL
1,"CCN(C(=O)c1cnc(-c2noc(C3CC3)n2)n1C)c1cccnc1 [Ia-1-1-12, 2-(5-cyclopropyl-1,2,4-oxadiazol-3-yl)-N-ethyl-1-methyl-N-(pyridin-3-yl)-1H-imidazole-5-carboxamide]",90 to 100%
2,"CCC1NC(c2ncc(C(=O)N(CC)c3cccnc3)n2C)=NO1 (centres unmarked) [Ia-1-4-44, N-ethyl-2-(5-ethyl-4,5-dihydro-1,2,4-oxadiazol-3-yl)-1-methyl-N-(pyridin-3-yl)-1H-imidazole-5-carboxamide]",90 to 100%
3,"CCN(C(=O)c1cnc(-c2noc(N(C)C)n2)n1C)c1cccnc1 [Ia-1-1-36, 2-(5-(dimethylamino)-1,2,4-oxadiazol-3-yl)-N-ethyl-1-methyl-N-(pyridin-3-yl)-1H-imidazole-5-carboxamide]",90 to 100%
4,"CCN(C(=O)c1cnc(C2=NOC(C)N2)n1C)c1cccnc1 (centres unmarked) [Ia-1-4-43, N-ethyl-1-methyl-2-(5-methyl-4,5-dihydro-1,2,4-oxadiazol-3-yl)-N-(pyridin-3-yl)-1H-imidazole-5-carboxamide]",90 to 100%
5,"CCN(C(=O)c1cnc(-c2nnc(C)o2)n1C)c1cccnc1 [Ia-1-3-3, N-ethyl-1-methyl-2-(5-methyl-1,3,4-oxadiazol-2-yl)-N-(pyridin-3-yl)-1H-imidazole-5-carboxamide]",90 to 100%
6,"CCN(C(=O)c1cnc(C2=NC3(CCOCC3)ON2C)n1C)c1cccnc1 [Ia-1-5-2, N-ethyl-1-methyl-2-(2-methyl-1,8-dioxa-2,4-diazaspiro[4.5]dec-3-en-3-yl)-N-(pyridin-3-yl)-1H-imidazole-5-carboxamide]",90 to 100%
7,"CCN(C(=O)c1cnc(C2=NOC(C)(C)N2C)n1C)c1cccnc1 [Ia-1-4-2, N-ethyl-1-methyl-N-(pyridin-3-yl)-2-(4,5,5-trimethyl-4,5-dihydro-1,2,4-oxadiazol-3-yl)-1H-imidazole-5-carboxamide]",90 to 100%
8,"CCN(C(=O)c1cnc(C2=NOC(C3CC3)N2)n1C)c1cccnc1 (centres unmarked) [Ia-1-4-41, 2-(5-cyclopropyl-4,5-dihydro-1,2,4-oxadiazol-3-yl)-N-ethyl-1-methyl-N-(pyridin-3-yl)-1H-imidazole-5-carboxamide]",90 to 100%
9,"CCc1nc(-c2ncc(C(=O)N(CC)c3cccnc3)n2C)no1 [Ia-1-1-8, N-ethyl-2-(5-ethyl-1,2,4-oxadiazol-3-yl)-1-methyl-N-(pyridin-3-yl)-1H-imidazole-5-carboxamide]",90 to 100%
10,"CCN(C(=O)c1cnc(-c2noc(C3CCOCC3)n2)n1C)c1cccnc1 [Ia-1-1-25, N-ethyl-1-methyl-N-(pyridin-3-yl)-2-(5-(tetrahydro-2H-pyran-4-yl)-1,2,4-oxadiazol-3-yl)-1H-imidazole-5-carboxamide]",90 to 100%
